Values of other authors, collected in patent EP4574138A1, “A TABLET COMPOSITION COMPRISING IVACAFTOR” (Sanovel Ilac Sanayi Ve Ticaret Anonim Sirketi, priority 2023, dated 2025).

Conditions: background description of the drug substance

solubility in water (practically insoluble in water): < 0.05 microgram/mL
SMILES: CC(C)(C)c1cc(C(C)(C)C)c(NC(=O)c2c[nH]c3ccccc3c2=O)cc1O [Ivacaftor, N-(2,4-di-tert-butyl-5-hydroxyphenyl)-1,4-dihydro-4-oxoquinoline-3-carboxamide]
